Measurements reported in patent publication US12589156B2, “Benzimidazole and benzimidazolone based protac compounds for the targeted degradation of leucine rich repeat kinase 2 (LRRK2)” (Arvinas Operations, Inc., priority 2023, dated 2026).

Target: T1, WT LRRK2 (Homo sapiens, UniProt Q5S007)
T1 construct: endogenous in cells; host or cells: HEK293 (endogenous LRRK2 gene knock-in tagged with HiBit; stably expressing CMV-driven firefly luciferase)
Assay: LRRK2 HiBit degradation assay (Nano-Glo Dual Luciferase) in HEK293 cells with HiBit-tagged endogenous LRRK2
Type: cell-based
Details: for Dmax: maximal degradation
Summary of the method: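 HEK293 cells carrying endogenous C-terminally HiBit-tagged LRRK2 and stably expressing CMV-driven firefly luciferase were treated for 24 h at 37° C with an 11-point 1:3 series from a 1 μM final top concentration. Nano-Glo Dual Luciferase read LRRK2-HiBit against firefly signal. Alamar Blue gave viability, and signals were normalized to DMSO median before curve fitting.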

[1] = HEK293, Table 2, HiBit-tagged LRRK2 in HEK293 cells, 24 hours treatment
[2] = Table 2, HiBit-tagged LRRK2 in HEK293 cells, 24 hours treatment, starting concentration 1 μM
[3] = HEK293, Table 3, comparison with direct comparators
[4] = Table 3, comparison with direct comparators, HiBit-tagged LRRK2 in HEK293 cells, 24 hours treatment

T1 sequence (Q5S007 whole entry): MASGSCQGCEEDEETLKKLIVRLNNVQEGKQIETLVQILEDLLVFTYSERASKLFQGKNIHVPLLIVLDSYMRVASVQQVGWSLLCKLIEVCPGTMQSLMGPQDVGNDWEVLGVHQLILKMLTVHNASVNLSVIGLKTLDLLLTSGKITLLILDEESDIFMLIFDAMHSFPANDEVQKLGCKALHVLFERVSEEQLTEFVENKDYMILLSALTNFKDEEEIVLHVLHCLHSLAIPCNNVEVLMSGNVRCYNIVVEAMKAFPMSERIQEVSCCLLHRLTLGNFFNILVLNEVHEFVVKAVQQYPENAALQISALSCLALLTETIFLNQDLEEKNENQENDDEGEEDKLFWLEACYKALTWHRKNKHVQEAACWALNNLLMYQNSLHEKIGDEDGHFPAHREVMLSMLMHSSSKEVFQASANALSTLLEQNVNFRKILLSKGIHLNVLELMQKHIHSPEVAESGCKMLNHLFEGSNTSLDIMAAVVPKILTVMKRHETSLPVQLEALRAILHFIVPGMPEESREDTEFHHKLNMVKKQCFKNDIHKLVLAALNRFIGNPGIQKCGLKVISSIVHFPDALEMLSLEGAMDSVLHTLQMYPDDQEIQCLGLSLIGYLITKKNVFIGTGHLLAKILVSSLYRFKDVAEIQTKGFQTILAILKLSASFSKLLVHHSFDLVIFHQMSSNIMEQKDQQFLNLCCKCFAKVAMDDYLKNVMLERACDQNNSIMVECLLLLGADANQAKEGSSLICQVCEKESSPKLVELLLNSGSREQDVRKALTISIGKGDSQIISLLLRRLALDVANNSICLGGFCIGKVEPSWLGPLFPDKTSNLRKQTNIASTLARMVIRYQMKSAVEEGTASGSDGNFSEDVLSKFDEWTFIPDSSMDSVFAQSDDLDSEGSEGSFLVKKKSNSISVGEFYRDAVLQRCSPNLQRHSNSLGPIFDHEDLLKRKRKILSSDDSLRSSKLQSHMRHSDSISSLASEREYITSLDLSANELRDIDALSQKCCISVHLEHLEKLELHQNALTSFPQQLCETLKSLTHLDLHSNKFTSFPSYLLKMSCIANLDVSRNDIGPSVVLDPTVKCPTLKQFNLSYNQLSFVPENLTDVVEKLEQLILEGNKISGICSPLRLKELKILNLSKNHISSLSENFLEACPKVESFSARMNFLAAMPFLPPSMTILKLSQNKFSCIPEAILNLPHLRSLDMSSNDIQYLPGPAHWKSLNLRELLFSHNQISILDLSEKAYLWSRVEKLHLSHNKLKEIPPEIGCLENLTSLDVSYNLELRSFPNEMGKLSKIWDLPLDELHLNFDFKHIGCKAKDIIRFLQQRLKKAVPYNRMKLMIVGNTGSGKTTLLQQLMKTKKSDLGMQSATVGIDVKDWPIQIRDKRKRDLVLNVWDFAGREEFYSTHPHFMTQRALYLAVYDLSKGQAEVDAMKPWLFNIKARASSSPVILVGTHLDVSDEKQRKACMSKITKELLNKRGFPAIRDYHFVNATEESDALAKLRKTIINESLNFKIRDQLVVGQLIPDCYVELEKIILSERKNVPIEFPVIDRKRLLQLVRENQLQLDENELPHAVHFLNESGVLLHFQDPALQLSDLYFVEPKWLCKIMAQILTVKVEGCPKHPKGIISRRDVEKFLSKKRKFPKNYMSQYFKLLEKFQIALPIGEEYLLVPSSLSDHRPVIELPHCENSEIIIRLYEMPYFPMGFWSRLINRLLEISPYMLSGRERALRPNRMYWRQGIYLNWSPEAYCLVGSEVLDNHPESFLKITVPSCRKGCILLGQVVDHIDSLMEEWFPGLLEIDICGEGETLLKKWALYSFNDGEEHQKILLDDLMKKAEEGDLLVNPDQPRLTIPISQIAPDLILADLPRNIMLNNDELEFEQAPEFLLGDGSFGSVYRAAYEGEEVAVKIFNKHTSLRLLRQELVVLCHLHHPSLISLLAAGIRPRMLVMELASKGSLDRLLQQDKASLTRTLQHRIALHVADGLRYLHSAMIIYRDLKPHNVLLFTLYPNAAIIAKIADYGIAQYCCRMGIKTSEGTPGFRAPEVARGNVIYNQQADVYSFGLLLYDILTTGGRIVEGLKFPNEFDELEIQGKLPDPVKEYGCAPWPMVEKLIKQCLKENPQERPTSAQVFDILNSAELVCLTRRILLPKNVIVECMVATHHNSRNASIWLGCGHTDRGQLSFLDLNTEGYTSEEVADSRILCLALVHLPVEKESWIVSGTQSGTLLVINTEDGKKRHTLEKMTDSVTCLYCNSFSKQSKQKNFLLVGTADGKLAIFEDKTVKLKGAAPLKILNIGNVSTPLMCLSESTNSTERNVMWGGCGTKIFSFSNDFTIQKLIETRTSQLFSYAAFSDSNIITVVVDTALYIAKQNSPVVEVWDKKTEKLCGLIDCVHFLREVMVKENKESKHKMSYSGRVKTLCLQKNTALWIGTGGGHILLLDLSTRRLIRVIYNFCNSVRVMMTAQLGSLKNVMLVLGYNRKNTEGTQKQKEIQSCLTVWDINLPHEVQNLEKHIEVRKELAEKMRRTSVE

Structure (SMILES)	Dmax [1] [%]	DC50 [2] [nM]	Dmax [3] [%]	DC50 [4] [nM]
Cn1c(=O)n(C2CCC(=O)NC2=O)c2ccc(N3CCC(O[C@H]4CC[C@H](CN5CCN(c6cc(-c7n[nH]c8cnc(C9(C#N)CCC9)cc78)ncn6)CC5)CC4)CC3)cc21 (single isomer, unassigned) [Compound 22, rel-1-{3-[6-(4-{[(1r,4r)-4-({1-[1-(2,6-dioxopiperidin-3-yl)-3-methyl-2-oxo-2,3-dihydro-1H-1,3-benzodiazol-5-yl]piperidin-4-yl}oxy)cyclohexyl]methyl}piperazin-1-yl)pyrimidin-4-yl]-1H-pyrazolo[3,4-c]pyridin-5-yl}cyclobutane-1-carbonitrile]	46	0.14		
Cn1c(=O)n(C2CCC(=O)NC2=O)c2ccc(N3CCC(CN4CCN(CC5CCN(c6cc(-c7n[nH]c8ccc(OC9(C)CC9)cc78)ncn6)CC5)CC4)CC3)cc21 (stereo not drawn) [Compound 12, 3-{3-methyl-5-[4-({4-[(1-{6-[5-(1-methylcyclopropoxy)-1H-indazol-3-yl]pyrimidin-4-yl}piperidin-4-yl)methyl]piperazin-1-yl}methyl)piperidin-1-yl]-2-oxo-2,3-dihydro-1H-1,3-benzodiazol-1-yl}piperidine-2,6-dione]	64	0.17	64	0.17
CC(C)n1c(=O)n(C2CCC(=O)NC2=O)c2ccc(N3CCC(CN4CCN(CC5CCN(c6cc(-c7n[nH]c8cnc(OC9(C)CC9)cc78)ncn6)CC5)C(C)(C)C4)CC3)cc21 (stereo not drawn) [Compound 51, 3-{5-[4-({3,3-dimethyl-4-[(1-{6-[5-(1-methylcyclopropoxy)-1H-pyrazolo[3,4-c]pyridin-3-yl]pyrimidin-4-yl}piperidin-4-yl)methyl]piperazin-1-yl}methyl)piperidin-1-yl]-2-oxo-3-(propan-2-yl)-2,3-dihydro-1H-1,3-benzodiazol-1-yl}piperidine-2,6-dione]	64	1.1		
Cn1c(=O)n(C2CCC(=O)NC2=O)c2cc(N3CCC(CN4CCN(CC5CCN(c6cc(-c7n[nH]c8ccc(OC9(C)CC9)cc78)ncn6)CC5)CC4)CC3)ccc21 (stereo not drawn) [Compound 16, 3-{3-methyl-6-[4-({4-[(1-{6-[5-(1-methylcyclopropoxy)-1H-indazol-3-yl]pyrimidin-4-yl}piperidin-4-yl)methyl]piperazin-1-yl}methyl)piperidin-1-yl]-2-oxo-2,3-dihydro-1H-1,3-benzodiazol-1-yl}piperidine-2,6-dione]		≥ 1000		
Cn1c(=O)n(C2CCC(=O)NC2=O)c2cc(Br)c(N3CCC(O[C@H]4CC[C@H](CN5CCN(c6cc(-c7n[nH]c8cnc(OC9(C)CC9)cc78)ncn6)CC5)CC4)CC3)cc21 (single isomer, unassigned) [Compound 67, rel-3-[6-bromo-3-methyl-2-oxo-5-(4-{[(1r,4r)-4-[(4-{6-[5-(1-methylcyclopropoxy)-1H-pyrazolo[3,4-c]pyridin-3-yl]pyrimidin-4-yl}piperazin-1-yl)methyl]cyclohexyl]oxy}piperidin-1-yl)-2,3-dihydro-1H-1,3-benzodiazol-1-yl]piperidine-2,6-dione]	90	5.9		
COc1c(N2CCC(CN3CCN(CC4CCN(c5cc(-c6n[nH]c7cnc(OC8(C)CC8)cc67)ncn5)CC4)C(C)(C)C3)CC2)ccc2c1CN(C1CCC(=O)NC1=O)C2=O (stereo not drawn) [Comparative Example 6, reference compound]			68	1.7
COc1c(N2CCC(O[C@H]3CC[C@H](CN4CCN(c5cc(-c6[nH]nc7ccc(OC8(C)CC8)cc67)ncn5)CC4)CC3)CC2)ccc2c1CN(C1CCC(=O)NC1=O)C2=O (stereo partly drawn) [Comparative Example 2, reference compound]			62	3
